Patent publication US9023789B2, “Amylin analogs and pharmaceutical compositions thereof” (Novo Nordisk A/S, priority 2012, dated 2015)
Like-named read-outs stand apart in the source and are kept apart here. Numbered stars: 1 amine (or outer) side, 2 acyl side, 3 side chain; on linkers, the order of the positions; unused ones are H or OH. Bridge positions count the residues as written; N and C are the ends. Side chains are listed from the residue outwards. Peptide text beside a SMILES is read from it. * marks the point of attachment. C20 diacid = O=C(O)CCCCCCCCCCCCCCCCCCC(=O)*; γGlu = O=C(O)[C@H](CCC(=O)[*:2])N[*:1]; AEEA = NCCOCCOCC(=O)O

Legend:
[1] = biological target: T1, human calcitonin (a) receptor in BHK570 cells (Homo sapiens, UniProt P30988); assay: ASSAY (II)a functional assay, human calcitonin receptor (CRE luciferase); type: cell-based
T1 construct: expressed in transfected cells
T1 sequence (P30988 25-474): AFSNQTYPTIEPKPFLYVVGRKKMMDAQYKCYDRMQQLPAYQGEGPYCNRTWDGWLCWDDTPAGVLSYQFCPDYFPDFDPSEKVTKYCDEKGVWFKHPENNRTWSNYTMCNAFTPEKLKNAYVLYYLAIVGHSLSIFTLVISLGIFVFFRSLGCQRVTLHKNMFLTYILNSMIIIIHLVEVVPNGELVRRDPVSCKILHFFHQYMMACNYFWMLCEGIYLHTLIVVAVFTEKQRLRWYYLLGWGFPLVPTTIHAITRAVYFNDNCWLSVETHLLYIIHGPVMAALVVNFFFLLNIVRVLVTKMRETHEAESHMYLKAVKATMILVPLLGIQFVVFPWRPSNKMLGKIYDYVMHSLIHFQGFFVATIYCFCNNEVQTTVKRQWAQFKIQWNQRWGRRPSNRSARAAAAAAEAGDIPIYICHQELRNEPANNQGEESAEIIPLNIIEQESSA
Procedure, shortened: (§1)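 Ligand exposure 3 h at 37 °C, 5% CO2 in DMEM with 10% FBS, 10 mM Hepes pH 7.4. cAMP-driven luciferase read by luminescence after 30 min LucLite at room temperature.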

[2] = biological target: T2, human calcitonin receptor (Homo sapiens, UniProt P30988); assay: ASSAY (VII) binding to the human calcitonin receptor (SPA, 125I-Calcitonin);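 also: cell membranes (35 ng/µL) combined with SPA beads in 40 µL of pH 7.4 Hepes buffer, 384-well format, signal counted on a TopCounter instrument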
T2 construct: expressed in transfected cells
T2 sequence (P30988 25-474): T1 sequence (P30988 25-474)

[3] = biological target: T3, human amylin receptor (membranes from Amylin 3(a)/CRE-luc cells) (Homo sapiens, UniProt O60896+P30988); assay: ASSAY (V) binding to the human amylin receptor (SPA, 125I-rat amylin);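 also: competition binding of cell membranes (35 ng/µL) mixed with SPA beads in 384-well plates at 40 µL total volume, read by scintillation counting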
T3 construct: expressed in transfected cells
T3 sequence (P30988 25-474): T1 sequence (P30988 25-474)
T3 sequence (O60896 24-148 partner): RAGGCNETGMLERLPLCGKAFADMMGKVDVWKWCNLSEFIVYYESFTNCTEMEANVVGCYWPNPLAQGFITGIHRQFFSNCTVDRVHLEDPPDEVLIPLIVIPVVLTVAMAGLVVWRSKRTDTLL

[4] = biological target: T4, rat amylin receptor (rat calcitonin receptor + rat RAMP 3) (Rattus norvegicus, UniProt P32214+Q9JJ73); assay: ASSAY (VI) binding to the rat amylin receptor
T4 construct: expressed in transfected cells; host or cells: BHK tk'ts 13 (transient, FuGENE 6), membranes
T4 sequence (P32214 25-479 isoform P32214-2 limits assumed): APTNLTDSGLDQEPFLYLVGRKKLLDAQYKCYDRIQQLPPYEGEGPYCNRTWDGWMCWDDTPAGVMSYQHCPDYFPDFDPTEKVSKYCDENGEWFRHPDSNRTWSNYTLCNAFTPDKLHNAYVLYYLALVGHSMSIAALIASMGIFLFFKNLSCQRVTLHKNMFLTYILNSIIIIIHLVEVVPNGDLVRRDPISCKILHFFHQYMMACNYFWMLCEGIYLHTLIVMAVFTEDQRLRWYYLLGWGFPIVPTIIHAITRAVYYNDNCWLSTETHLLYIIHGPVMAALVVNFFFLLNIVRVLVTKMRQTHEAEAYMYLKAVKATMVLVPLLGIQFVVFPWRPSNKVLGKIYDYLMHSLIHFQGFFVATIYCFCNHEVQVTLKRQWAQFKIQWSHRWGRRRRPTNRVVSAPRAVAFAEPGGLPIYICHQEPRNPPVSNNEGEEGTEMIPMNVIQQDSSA
T4 sequence (Q9JJ73 23-147 partner): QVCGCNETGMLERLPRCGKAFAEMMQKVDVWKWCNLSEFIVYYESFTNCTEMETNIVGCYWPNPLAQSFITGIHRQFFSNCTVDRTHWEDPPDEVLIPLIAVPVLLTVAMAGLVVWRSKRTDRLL
Procedure, shortened: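 This assay measured binding to the rat amylin receptor. BHK tk′ts 13 cells were transiently transfected with the rat calcitonin receptor using FuGENE® 6 (Roche), following the manufacturer's recommendations. About 48 hours after transfection, the cells were harvested and membranes were prepared from them for the binding determination.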

[5] = biological target: T5, human amylin 3(a) receptor (human calcitonin receptor + RAMP-3) in BHK570 cells (Homo sapiens, UniProt O60896+P30988); assay: ASSAY (II)a functional assay, human amylin receptor (CRE luciferase); type: cell-based
T5 construct: expressed in transfected cells
Procedure, shortened: as §1

rat calcitonin receptor = biological target: T6, rat calcitonin receptor (Rattus norvegicus, UniProt P32214); assay: ASSAY (VIII) binding to the rat calcitonin receptor; settings: Table 7, read-out: rCTR bind IC50
T6 construct: expressed in transfected cells; host or cells: BHK tk'ts 13 (transient, FuGENE 6), membranes
T6 sequence (P32214 25-479 isoform P32214-2 limits assumed): T4 sequence (P32214 25-479 isoform P32214-2 limits assumed)
Procedure, shortened: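 Membranes were prepared from BHK tk′ts 13 cells transiently transfected with rat calcitonin receptor. Cells were grown in DMEM with 10% FBS and harvested approximately 48 hours after transfection.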

[6] = Table 4, read-out: hAmylin-R bind IC50
[7] = Table 5, selectivity, hCTR bind IC50 / hAmylin-R bind IC50
[8] = Table 5a, selectivity, hCTR bind IC50 / hAmylin-R bind IC50
[9] = Table 5b, selectivity, hCTR bind IC50 / hAmylin-R bind IC50
[10] = Table 5c, selectivity, hCTR bind IC50 / hAmylin-R bind IC50
[11] = Table 7, human binding selectivity, included for comparison
[12] = Table 7a (preferred compounds), human binding selectivity, included for comparison
[13] = ratio of human calcitonin receptor binding IC50 to human amylin receptor binding IC50
[14] = Table 7, binding to rat amylin receptor, read-out: rAmylin-R bind IC50
[15] = Table 7, rat binding selectivity, rCTR IC50 / rAmylin-R IC50
[16] = Table 7a (preferred compounds), rat binding selectivity, rCTR IC50 / rAmylin-R IC50
[17] = ratio of rCTR bind IC50 to rAmylin-R bind IC50
[18] = hCTR funct. EC50 divided by hAmylin-R funct. EC50
[19] = hCTR funct. EC50 over hAmylin-R funct. EC50
[20] = human amylin receptor functional potency, assay (II), read-out: hAmylin-R funct. EC50
[21] = human functional selectivity: hCTR funct. EC50 / hAmylin-R funct. EC50

CC[C@H](C)[C@H](NC(=O)[C@H](C)NC(=O)CNC(=O)[C@H](Cc1ccccc1)NC(=O)[C@H](CC(N)=O)NC(=O)[C@@H]1CCCN1C(=O)[C@H](CO)NC(=O)[C@H](CO)NC(=O)[C@H](Cc1c[nH]cn1)NC(=O)[C@H](CCCNC(=N)N)NC(=O)[C@H](CC(C)C)NC(=O)[C@H](Cc1ccccc1)NC(=O)[C@H](CCCNC(=N)N)NC(=O)[C@H](C)NC(=O)[C@H](CC(C)C)NC(=O)[C@H](CCCNC(=N)N)NC(=O)[C@H](CCC(N)=O)NC(=O)[C@@H](NC(=O)[C@H](C)NC(=O)[C@@H]1CSSC[C@H](NC(=O)[C@@H](N)CCCCNC(=O)COCCOCCNC(=O)CC[C@H](NC(=O)CCCCCCCCCCCCCCCCCCC(=O)O)C(=O)O)C(=O)N[C@@H](CC(N)=O)C(=O)N[C@@H]([C@@H](C)O)C(=O)N[C@@H](C)C(=O)N[C@@H]([C@@H](C)O)C(=O)N1)[C@@H](C)O)C(=O)N1CCC[C@H]1C(=O)N[C@@H](CO)C(=O)N[C@@H](CO)C(=O)N[C@H](C(=O)N1CCC[C@H]1C(=O)N[C@H](C(=O)NCC(=O)N[C@@H](CO)C(=O)N[C@@H](CC(N)=O)C(=O)N[C@H](C(=O)N[C@@H](Cc1ccc(O)cc1)C(N)=O)[C@@H](C)O)C(C)C)[C@@H](C)O [Example 64] (H-K([AEEA-γGlu-C20 diacid])CNTATCATQRLARFLRHSSPNFGAIPSSTPVGSNTY-NH2; disulfide 2-7; N-terminus assumed)
EC50 ([1]; read-out: hCTR funct. EC50): 22.9 nM
IC50 ([2]; read-out: hCTR bind IC50): 56 nM
IC50 [3, 6]: 0.444 nM
Ratio hCT/hAmylin binding [3, 7]: 126.1
Ratio hCT/hAmylin binding [3, 8]: 126.1
Ratio hCT/hAmylin binding [3, 9]: 126.1
Ratio hCT/hAmylin binding [3, 10]: 126.1
Ratio hCT/hAmylin binding [3, 11]: 126.1
Ratio hCT/hAmylin binding [3, 12]: 126.1
Ratio hCT/hAmylin binding [3, 13]: 126.1
IC50 [4, 14]: 1.97 nM
Ratio rCT/rAmylin binding [4, 15]: 64.7
Ratio rCT/rAmylin binding [4, 16]: 64.7
Ratio rCT/rAmylin binding [4, 17]: 64.7
Ratio hCT/hAmylin funct. [5, 18]: 60.7
Ratio hCT/hAmylin funct. [5, 19]: 60.7
EC50 [5, 20]: 0.378 nM
Ratio hCT/hAmylin funct. [5, 21]: 60.7
IC50 (rat calcitonin receptor): 128 nM

CC[C@H](C)[C@H](NC(=O)[C@H](C)NC(=O)CNC(=O)[C@H](Cc1ccccc1)NC(=O)[C@H](CC(N)=O)NC(=O)[C@@H]1CCCN1C(=O)[C@H](CO)NC(=O)[C@H](CO)NC(=O)[C@H](Cc1c[nH]cn1)NC(=O)[C@H](CCCNC(=N)N)NC(=O)[C@H](CC(C)C)NC(=O)[C@H](Cc1ccccc1)NC(=O)[C@H](CCCCN)NC(=O)[C@H](C)NC(=O)[C@H](CC(C)C)NC(=O)[C@H](CCCNC(=N)N)NC(=O)[C@H](CCC(N)=O)NC(=O)[C@@H](NC(=O)[C@H](C)NC(=O)[C@@H]1CSSC[C@H](NC(=O)[C@@H](N)CCCCNC(=O)COCCOCCNC(=O)CC[C@H](NC(=O)CCCCCCCCCCCCCCCCCCC(=O)O)C(=O)O)C(=O)N[C@@H](CC(N)=O)C(=O)N[C@@H]([C@@H](C)O)C(=O)N[C@@H](C)C(=O)N[C@@H]([C@@H](C)O)C(=O)N1)[C@@H](C)O)C(=O)N1CCC[C@H]1C(=O)N[C@@H](CO)C(=O)N[C@@H](CO)C(=O)N[C@H](C(=O)N1CCC[C@H]1C(=O)N[C@H](C(=O)NCC(=O)N[C@@H](CO)C(=O)N[C@@H](CC(N)=O)C(=O)N[C@H](C(=O)N[C@@H](Cc1ccc(O)cc1)C(N)=O)[C@@H](C)O)C(C)C)[C@@H](C)O [Example 74] (H-K([AEEA-γGlu-C20 diacid])CNTATCATQRLAKFLRHSSPNFGAIPSSTPVGSNTY-NH2; disulfide 2-7; N-terminus assumed)
EC50 [1]: 37.5 nM
IC50 [2]: 79.9 nM
IC50 [3]: 0.791 nM
Ratio hCT/hAmylin binding [3, 7]: 101.0
Ratio hCT/hAmylin binding [3, 8]: 101.0
Ratio hCT/hAmylin binding [3, 9]: 101.0
Ratio hCT/hAmylin binding [3, 10]: 101.0
Ratio hCT/hAmylin binding [3, 11]: 101.0
Ratio hCT/hAmylin binding [3, 12]: 101.0
Ratio hCT/hAmylin binding [3, 13]: 101.0
IC50 [4]: 4.89 nM
Ratio rCT/rAmylin binding [4, 15]: 22.3
Ratio rCT/rAmylin binding [4, 16]: 22.3
Ratio rCT/rAmylin binding [4, 17]: 22.3
EC50 [5]: 0.666 nM
Ratio hCT/hAmylin funct. [5, 18]: 56.3
Ratio hCT/hAmylin funct. [5, 19]: 56.3
Ratio hCT/hAmylin funct. [5, 21]: 56.3
IC50 (rat calcitonin receptor): 109 nM

CC[C@H](C)[C@H](NC(=O)[C@H](C)NC(=O)CNC(=O)[C@H](Cc1ccccc1)NC(=O)[C@H](CC(N)=O)NC(=O)[C@@H]1CCCN1C(=O)[C@H](CO)NC(=O)[C@H](CO)NC(=O)[C@H](Cc1c[nH]cn1)NC(=O)[C@H](CCCNC(=N)N)NC(=O)[C@H](CC(C)C)NC(=O)[C@H](Cc1ccccc1)NC(=O)[C@H](CC(N)=O)NC(=O)[C@H](C)NC(=O)[C@H](CC(C)C)NC(=O)[C@H](CCCNC(=N)N)NC(=O)[C@H](CCC(N)=O)NC(=O)[C@@H](NC(=O)[C@H](C)NC(=O)[C@@H]1CSSC[C@H](NC(=O)[C@@H](N)CCCCNC(=O)COCCOCCNC(=O)CC[C@H](NC(=O)CCCCCCCCCCCCCCCCCCC(=O)O)C(=O)O)C(=O)N[C@@H](CC(N)=O)C(=O)N[C@@H]([C@@H](C)O)C(=O)N[C@@H](C)C(=O)N[C@@H]([C@@H](C)O)C(=O)N1)[C@@H](C)O)C(=O)N1CCC[C@H]1C(=O)N[C@@H](CO)C(=O)N[C@@H](CO)C(=O)N[C@H](C(=O)N[C@@H](CC(N)=O)C(=O)N[C@H](C(=O)NCC(=O)N[C@@H](Cc1c[nH]cn1)C(=O)N[C@@H](CC(N)=O)C(=O)N[C@H](C(=O)N[C@@H](Cc1ccc(O)cc1)C(N)=O)[C@@H](C)O)C(C)C)[C@@H](C)O [Example 76] (H-K([AEEA-γGlu-C20 diacid])CNTATCATQRLANFLRHSSPNFGAIPSSTNVGHNTY-NH2; disulfide 2-7; N-terminus assumed)
EC50 ([1]; read-out: hCTR funct. EC50): 7.37 nM
IC50 ([2]; read-out: hCTR bind IC50): 17.2 nM
IC50 [3, 6]: 0.215 nM
Ratio hCT/hAmylin binding [3, 7]: 80.0
Ratio hCT/hAmylin binding [3, 8]: 80.0
Ratio hCT/hAmylin binding [3, 9]: 80.0
Ratio hCT/hAmylin binding [3, 10]: 80.0
Ratio hCT/hAmylin binding [3, 11]: 80.0
Ratio hCT/hAmylin binding [3, 12]: 80.0
Ratio hCT/hAmylin binding [3, 13]: 80.0
IC50 [4, 14]: 0.686 nM
Ratio rCT/rAmylin binding [4, 15]: 56.8
Ratio rCT/rAmylin binding [4, 16]: 56.8
Ratio rCT/rAmylin binding [4, 17]: 56.8
Ratio hCT/hAmylin funct. [5, 18]: 24.8
Ratio hCT/hAmylin funct. [5, 19]: 24.8
EC50 [5, 20]: 0.297 nM
Ratio hCT/hAmylin funct. [5, 21]: 24.8
IC50 (rat calcitonin receptor): 38.9 nM
